± gives the expanded uncertainty stated by the source.
Tests used:
[1] = 298.15 K; for viscosity: 101.33 kPa, Liquid, Concentric cylinders viscometry; for surface tension liquid-gas: Wilhelmy plate
[2] = refractive index (Na D-line) (dimensionless); details: 293.1 K; 101.33 kPa; Liquid; Standard Abbe refractometry
[3] = xn = mol fraction of the nth substance listed; details: x1 = 1; for surface tension liquid-gas: Wilhelmy plate; for viscosity: 101 kPa, Liquid, Concentric cylinders viscometry

SMILES	viscosity [1] [mPa·s]	refractive index [2]	surface tension liquid-gas [1] [mN/m]	surface tension liquid-gas ([3]; 298.15 K) [mN/m]	viscosity ([3]; 298.15 K) [mPa·s]	surface tension liquid-gas ([3]; 303.15 K) [mN/m]	viscosity ([3]; 303.15 K) [mPa·s]	surface tension liquid-gas ([3]; 308.15 K) [mN/m]	viscosity ([3]; 308.15 K) [mPa·s]	surface tension liquid-gas ([3]; 313.15 K) [mN/m]	viscosity ([3]; 313.15 K) [mPa·s]
CN(C)C=O [dimethylformamide] + CCCCCCCO				35.2 ± 0.04	0.8162 ± 0.0092	34.1 ± 0.04	0.7678 ± 0.0091	33 ± 0.04	0.7262 ± 0.009	32 ± 0.03	0.678 ± 0.0089
CN(C)C=O [dimethylformamide] + CCCCCO				35.2 ± 0.04	0.8162 ± 0.0092	34.1 ± 0.04	0.7678 ± 0.0091	33 ± 0.04	0.7262 ± 0.009	32 ± 0.03	0.678 ± 0.0089
CN(C)C=O [dimethylformamide] + CCCCCCO				35.2 ± 0.04	0.8162 ± 0.0092	34.1 ± 0.04	0.7678 ± 0.0091	33 ± 0.04	0.7262 ± 0.009	32 ± 0.03	0.678 ± 0.0089
CN(C)C=O [dimethylformamide]	0.8162 ± 0.0092	1.429 ± 0.02	35.2 ± 0.04								

The remaining lines, values ahead:

viscosity [1] [mPa·s]	refractive index [2]	surface tension liquid-gas [1] [mN/m]	surface tension liquid-gas ([3]; 298.15 K) [mN/m]	viscosity ([3]; 298.15 K) [mPa·s]	surface tension liquid-gas ([3]; 303.15 K) [mN/m]	viscosity ([3]; 303.15 K) [mPa·s]	surface tension liquid-gas ([3]; 308.15 K) [mN/m]	viscosity ([3]; 308.15 K) [mPa·s]	surface tension liquid-gas ([3]; 313.15 K) [mN/m]	viscosity ([3]; 313.15 K) [mPa·s]	SMILES
4.593 ± 0.022	1.418 ± 0.001										CCCCCCO [hexan-1-ol]
3.5 ± 0.018	1.409 ± 0.02	24.55 ± 0.062									CCCCCO [pentan-1-ol]
5.944 ± 0.038	1.424 ± 0.02	26.47 ± 0.13									CCCCCCCO [heptan-1-ol]

Reference: the NIST ThermoML archive (doi:10.1016/j.jct.2012.06.023)
